This passage reports Activity results from ChEMBL document CHEMBL4138125, “Recent advances in discovery and development of natural products as source for anti-Parkinson's disease lead compounds” (2017).

Common to all, as to assay type: functional
A short description of assay [1]: Neuroprotective activity in OF1/SPF […] brain dopaminergic neurons assessed as suppression of MPP+-induced cell death at 0.1 to 10 uM pre-incubated for 4 days tarting from day 8 before MPP+ challenge for 48 hrs.
A short description of assay [2]: Neuroprotective activity in OF1/SPF […] brain dopaminergic neurons assessed as suppression of long-term rotenone-induced cell death at 0.1 to 10 uM incubated concomitantly with rotenone from days 6 to 12.
Assay [3] is described as follows: Neuroprotective activity in OF1/SPF […] brain dopaminergic neurons assessed as suppression of short-term rotenone -induced cell death at 0.1 to 10 uM pre-incubated for 4 days starting from day 8 before rotenone challenge for 48 hrs.

Structures are written as SMILES.

For the compound `CC1=CC(=O)C(C(C)C)=CC1=O` [THYMOQUINONE], the Activity in assay [1] was found to be 40%; in assay [2], 24%; in assay [3] it was 33%.
